# Results: patent publication US20150238425A1, “MINI-TABLETS” (DSM SINOCHEM PHARMACEUTICALS NETHERLANDS B.V., priority 2012, published 2015)
# Columns and labels:
# [1] = Stability of mini-tablets containing clavulanic acid compared to a clavulanic acid reference sample as a function of time; format: physicochemical
# Experimental: (§1) The 8 mini-tablets prepared in Example 1 and an amoxicillin reference sample were analyzed for stability. Stability data for clavulanic acid in mini-tablets compared to a clavulanic acid reference sample were also analyzed for stability.
# [2] = Stability of mini-tablets (Series 1-8) compared to an amoxicillin reference sample as a function of time; format: physicochemical
# Experimental: as §1
compound,measurement,setting,value
"O=C(O)[C@H]1/C(=C/CO)O[C@@H]2CC(=O)N21 [Clavulanic acid reference, Clavulanic acid]",Stability (clavulanic acid) as a function of time,[1]; 0 weeks,100%
same,Stability (clavulanic acid) as a function of time,[1]; 1 week,86.4%
same,Stability (clavulanic acid) as a function of time,[1]; 26 weeks,88.4%
"CC1(C)S[C@@H]2[C@H](NC(=O)[C@H](N)c3ccc(O)cc3)C(=O)N2[C@H]1C(=O)O [Amoxicillin reference, Amoxicillin]",Stability (amoxicillin) as a function of time,[2]; 0 weeks,100.0
same,Stability (amoxicillin) as a function of time,[2]; 1 week,100.0
same,Stability (amoxicillin) as a function of time,[2]; 49 weeks,97.8
